# Experimental data published in PMC11984419, “Differential senolytic inhibition of normal versus Aβ-associated cholinesterases: implications in aging and Alzheimer’s disease” (Aging (Albany NY), 2025).
# Structures can show the parent of a compound that is named as a salt. Where two headings read alike, the source gives them in different places.
# Legend:
# recombinant human AChE = target: T1, recombinant human AChE (Homo sapiens, UniProt P22303); assay: Enzyme kinetic study (Ellman's assay, Lineweaver-Burk) with AChE; format: biochemical; conditions: for AChE mode of inhibition: from Lineweaver-Burk plots
# T1 construct: purchased MilliporeSigma Canada Ltd. (Oakville, Ontario, Canada)
# T1 sequence (P22303 32-614): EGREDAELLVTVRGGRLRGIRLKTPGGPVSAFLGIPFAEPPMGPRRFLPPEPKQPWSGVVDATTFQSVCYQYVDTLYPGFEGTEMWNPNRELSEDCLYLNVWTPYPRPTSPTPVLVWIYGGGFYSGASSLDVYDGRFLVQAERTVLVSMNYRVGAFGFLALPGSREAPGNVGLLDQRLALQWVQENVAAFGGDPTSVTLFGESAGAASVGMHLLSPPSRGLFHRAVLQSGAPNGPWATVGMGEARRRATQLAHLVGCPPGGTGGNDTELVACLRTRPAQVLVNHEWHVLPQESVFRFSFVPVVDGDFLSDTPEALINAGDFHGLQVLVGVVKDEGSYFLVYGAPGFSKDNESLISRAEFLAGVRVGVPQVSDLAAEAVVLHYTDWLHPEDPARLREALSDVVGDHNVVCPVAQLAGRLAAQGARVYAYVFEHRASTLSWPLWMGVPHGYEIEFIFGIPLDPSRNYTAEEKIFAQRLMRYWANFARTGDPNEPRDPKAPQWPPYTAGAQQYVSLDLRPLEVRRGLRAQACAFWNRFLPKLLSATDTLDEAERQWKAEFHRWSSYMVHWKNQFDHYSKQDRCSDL
# Protocol: (§1) Enzyme kinetic studies were performed as previously described, using Ellman’s assay. Briefly, in a quartz cuvette (1 cm pathlength), a 0.577 mM DTNB solution in 0.1 M potassium phosphate buffer (1.6 mL, pH 7.0) was combined at room temperature with either recombinant AChE (0.1 mL, 3.7 nM) in 0.005% aqueous gelatin or purified human serum BChE (0.1 mL, 5.85 nM) in 0.005% aqueous gelatin and mixed with a senolytic or nootropic compound (Figure 1) dissolved in 50% (v/v) aqueous acetonitrile (0.05 mL). […] Substrate concentrations were kept constant while the senolytic concentrations varied (0-140 μM). Changes in absorbance (ΔA/min), reflecting the rate of ATChI or BTChI hydrolysis with their respective enzymes, were recorded spectrophotometrically every 5 seconds for 1 minute.
# (§2) As done previously, Lineweaver-Burk plots were generated for each senolytic and nootropic compound with the velocity (v) of each reaction determined using Beer’s Law, where v = (ΔA/min)/(εl), ε is the molar extinction coefficient for 5-thio-2-nitrobenzoic acid (TNB) (13600 M^−1 cm^−1), and l is the cuvette pathlength (1 cm). Replotting the calculated slopes from each double reciprocal plot against senolytic and nootropic concentrations, gave the inhibitor constant (Ki, M) as the x-intercept. The mode of inhibition (competitive, non-competitive, mixed non-competitive, or uncompetitive) was also determined by analyzing the relational pattern of linear regressions for varying concentrations of the same senolytic or nootropic compound. Enzyme kinetic experiments were performed in triplicate and kinetic parameter values were averaged.
# [1] = target: T2, BChE associated with normal neural elements (Homo sapiens, UniProt P06276); assay: Karnovsky-Roots histochemical staining, BChE associated with normal neural elements (pH 8.0); format: biochemical; conditions: for Inhibition of staining, BChE pH 8.0: normal neural elements, AD thalamus, average ranking of four AD cases, compound 0.25-1.3 mM in KR solution; for Inhibition of BChE staining associated with normal neural elements (in words): pH 8.0, relative to controls
# T2 construct: post-mortem brain tissues from sex- and age-matched AD cases; tissue Maritime Brain Tissue Bank, Dalhousie University; host or cells: post-mortem human AD brain: orbitofrontal cortex (plaques, pH 6.8) and thalamus (normal neural elements, pH 8.0)
# T2 sequence (P06276 29-602): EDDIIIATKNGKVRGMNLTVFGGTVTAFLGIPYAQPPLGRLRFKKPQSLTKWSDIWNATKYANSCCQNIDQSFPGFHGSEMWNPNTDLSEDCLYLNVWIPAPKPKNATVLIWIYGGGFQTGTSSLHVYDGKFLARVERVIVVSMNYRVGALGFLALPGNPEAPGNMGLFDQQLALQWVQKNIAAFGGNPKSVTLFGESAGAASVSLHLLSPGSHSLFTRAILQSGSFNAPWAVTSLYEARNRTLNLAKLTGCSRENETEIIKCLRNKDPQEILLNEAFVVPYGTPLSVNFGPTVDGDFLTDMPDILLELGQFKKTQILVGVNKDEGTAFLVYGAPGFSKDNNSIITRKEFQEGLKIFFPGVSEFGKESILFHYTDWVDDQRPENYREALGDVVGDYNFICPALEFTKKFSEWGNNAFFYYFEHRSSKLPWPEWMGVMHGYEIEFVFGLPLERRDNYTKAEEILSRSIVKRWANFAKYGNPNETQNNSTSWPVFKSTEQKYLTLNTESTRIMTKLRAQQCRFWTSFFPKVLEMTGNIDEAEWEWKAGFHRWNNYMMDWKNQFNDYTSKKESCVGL
# Protocol: (§3) Histochemical staining for AChE and BChE activity in brain tissues was done using a modified Karnovsky-Roots (KR) method. Tissue sections were first rinsed for 30 min in 0.1 M PB, followed by 30 min in 0.1 M PB with […] hydrogen peroxide (H2O2) and then rinsed for 30 min with 0.1 M maleate buffer (MB; pH 6.8 or […]) prior to incubation in the KR solution. Sections stained for AChE were incubated in the KR solution for 1.75 hr, while sections stained for BChE were incubated for 2.5 hr. The KR staining solution contained 0.5 mM sodium citrate, 0.47 mM cupric sulfate, and 0.05 mM of potassium ferricyanide, a thioester ChE substrate and ChE inhibitor in MB at pH 6.8 to stain for ChEs associated with AD pathology or pH 8.0 to stain for ChEs associated with normal neural elements. For AChE staining, ATChI (0.4 mM) was used as the substrate and ethopropazine (0.06 mM) was used to inhibit BChE. For BChE staining, BTChI (0.8 mM) was used as the substrate and BW 284c51 (0.01 mM) was used to inhibit AChE. Following incubation in KR, sections were rinsed in distilled water (dH2O) for 30 min, incubated in a 0.1% cobalt chloride solution in dH2O for 10 min, and rinsed again in dH20 for 30 min. Sections were incubated in 1.39 mM 3,3’-diaminobenzidine tetrahydrochloride (DAB) in PB (pH 7.4) for 5 min and then developed using 50 μL of 0.3% H2O2 per mL of DAB solution. The reaction was stopped by a 30 min rinse in 0.01 M acetate buffer (pH 3.3). Stained sections were mounted on glass slides, cover-slipped and examined with brightfield microscopy.
# (§4) To evaluate the interactions of senolytic and nootropic compounds with ChEs in brain tissues, the above histochemical technique was used with minor variations to the KR incubation. Senolytic and nootropic compounds were dissolved in 50% aqueous acetonitrile to make a stock solution. […] Following incubation for AChE (1.75 hr) and BChE (2.5 hr) in the KR solution, staining was completed as described above.
# (§5) Positive controls included staining for BChE and AChE activity at pH 6.8 and pH 8.0 without any additions. Negative controls were utilized to validate staining specificity of BChE and AChE at pH 6.8 and pH 8.0, where the substrates (BTChI and ATChI, respectively) were omitted, as previously described. […] Briefly, 50% aqueous acetonitrile was added to the KR solution, without any senolytic or nootropic compound, while maintaining the same volume as the compound additives.
# (§6) A qualitative method was used to evaluate the effect of senolytic and nootropic compounds on ChE histochemical staining, as done previously. Inhibition of staining intensity was categorized as follows: No reduction (-), slight (x), moderate (xx), or strong (xxx). Tissue sections were analyzed using brightfield microscopy on an Olympus BX50F microscope (Olympus Optical Co., Ltd., Tokyo, Japan). Photomicrographs of the stained tissue sections were taken using a Zeiss Axio Scan.Z1 slide scanner with Zen 3.1 Blue Edition software (Carl Zeiss Canada Ltd., Toronto, Ontario, Canada). Figures were assembled using Adobe Photoshop (CS 5, Version 12.0, San Diego, CA, USA). The brightness of each individual image was adjusted to ensure backgrounds matched for analysis.
# [2] = target: T3, BChE purified from human plasma (Homo sapiens, UniProt P06276); assay: Enzyme kinetic study (Ellman's assay, Lineweaver-Burk) with BChE; format: biochemical; conditions: for BChE mode of inhibition: from Lineweaver-Burk plots
# T3 construct: BChE purified from human plasma was a gift from Dr. Oksana Lockridge; tissue gift from Dr. Oksana Lockridge (Eppley Institute, University of Nebraska Medical Center); host or cells: human plasma
# T3 sequence (P06276 29-602): as above
# Protocol: as §1, §2
# [3] = target: T4, AChE associated with β-amyloid plaques (Homo sapiens, UniProt P22303); assay: Karnovsky-Roots histochemical staining, AChE associated with plaques (pH 6.8); format: biochemical; conditions: for Inhibition of AChE staining associated with plaques (in words): pH 6.8, compared with control staining; for Inhibition of staining, AChE pH 6.8: plaques, AD orbitofrontal cortex, average ranking of four AD cases, compound 0.25-1.3 mM in KR solution
# T4 construct: post-mortem brain tissues from sex- and age-matched AD cases; tissue Maritime Brain Tissue Bank, Dalhousie University; host or cells: post-mortem human AD brain: orbitofrontal cortex (plaques, pH 6.8) and thalamus (normal neural elements, pH 8.0)
# T4 sequence (P22303 32-614): as the sequence (P22303 32-614) above
# Protocol: as §3, §4, §5, §6
# [4] = target: T5, BChE associated with β-amyloid plaques (Homo sapiens, UniProt P06276); assay: Karnovsky-Roots histochemical staining, BChE associated with plaques (pH 6.8); format: biochemical; conditions: for Inhibition of BChE staining associated with plaques (in words): pH 6.8, compared with control staining; for Inhibition of staining, BChE pH 6.8: plaques, AD orbitofrontal cortex, average ranking of four AD cases, compound 0.25-1.3 mM in KR solution
# T5 construct: post-mortem brain tissues from sex- and age-matched AD cases; tissue Maritime Brain Tissue Bank, Dalhousie University; host or cells: post-mortem human AD brain: orbitofrontal cortex (plaques, pH 6.8) and thalamus (normal neural elements, pH 8.0)
# T5 sequence (P06276 29-602): as the sequence (P06276 29-602) above
# Protocol: as §3, §4, §5, §6
# [5] = target: T6, AChE associated with normal neural elements (Homo sapiens, UniProt P22303); assay: Karnovsky-Roots histochemical staining, AChE associated with normal neural elements (pH 8.0); format: biochemical; conditions: for Inhibition of staining, AChE pH 8.0: normal neural elements, AD thalamus, average ranking of four AD cases, compound 0.25-1.3 mM in KR solution; for Inhibition of AChE staining associated with normal neural elements (in words): pH 8.0, relative to controls
# T6 construct: post-mortem brain tissues from sex- and age-matched AD cases; tissue Maritime Brain Tissue Bank, Dalhousie University; host or cells: post-mortem human AD brain: orbitofrontal cortex (plaques, pH 6.8) and thalamus (normal neural elements, pH 8.0)
# T6 sequence (P22303 32-614): as the sequence (P22303 32-614) above
# Protocol: as §3, §4, §5, §6
# BChE = conditions: read-out: Literature BChE Ki values, cited from earlier work
# AChE = conditions: ref Katalinić et al. [60]; read-out: Literature AChE Ki values; cited from earlier work
# [6] = tested on: ChE associated with normal neural elements; conditions: ref [37]; cited from earlier work
# [7] = tested on: ChE associated with plaques; conditions: ref [37]; cited from earlier work
# [8] = purified human serum BChE, BTChI substrate, pH 7.0, triplicate
SMILES,Ki (recombinant human AChE) [µM],AChE mode of inhibition (recombinant human AChE),"Inhibition of staining, BChE pH 8.0 [1]",Inhibition of BChE staining associated with normal neural elements (in words) [1],BChE mode of inhibition [2],Inhibition of AChE staining associated with plaques (in words) [3],"Inhibition of staining, AChE pH 6.8 [3]",Inhibition of BChE staining associated with plaques (in words) [4],"Inhibition of staining, BChE pH 6.8 [4]","Inhibition of staining, AChE pH 8.0 [5]",Inhibition of AChE staining associated with normal neural elements (in words) [5],other results
"Cc1nc(Nc2ncc(C(=O)Nc3c(C)cccc3Cl)s2)cc(N2CCN(CCO)CC2)n1 [Dasatinib (1), dasatinib]",28.2,(Mixed Non-competitive),- (– (no inhibition)),no inhibition,(Mixed Non-competitive),reduced by varying degrees,xx/x^a,complete inhibition,xxx (xxx (strong inhibition)),- (– (no inhibition)),no inhibition,–
"O=c1c(O)c(-c2ccc(O)c(O)c2)oc2cc(O)ccc12 [Fisetin (3), fisetin]",–,competitive inhibition,–,–,uncompetitive inhibition,–,–,–,–,–,–,"Ki (recombinant human AChE; recombinant human AChE, ATChI substrate, pH 7.0, triplicate, read-out: Experimental AChE Ki): 110 µM; Ki (BChE; ref Katalinić et al. [60]): 94.2 µM; Ki ([2]; purified human serum BChE, BTChI substrate, pH 7.0, triplicate, read-out: Experimental BChE Ki): 94.4 µM; Ki (AChE): 100 µM"
"COc1ccc(COc2ccc(Cc3cnc(N)nc3N)cc2OC)cc1 [GW2580 (5), GW2580]",71,(Mixed Non-competitive),- (– (no inhibition)),did not inhibit,–,did not inhibit,- (– (no inhibition)),did inhibit,x/xx,- (– (no inhibition)),did not inhibit,"Experimental BChE Ki [2, 8]: No Inhibition; Experimental BChE Ki ([2]; purified human serum BChE, BTChI substrate, pH 7.0, triplicate, listed as 5): did not inhibit"
"CN(C)CCOC(=O)COc1ccc(Cl)cc1 [Meclofenoxate Hydrochloride (6), meclofenoxate hydrochloride]",63.2,(Mixed Non-competitive),- (– (no inhibition)),did not inhibit,(Mixed Non-competitive),moderate to strong inhibition,–,slight inhibition,–,- (– (no inhibition)),did not inhibit,–
"COC(=O)c1ccc2c(c1)NC(=O)/C2=C(\Nc1ccc(N(C)C(=O)CN2CCN(C)CC2)cc1)c1ccccc1 [Nintedanib (2), nintedanib]",7.1,(Mixed Non-competitive),- (– (no inhibition)),no inhibition,–,complete inhibition,xxx (xxx (strong inhibition)),complete inhibition,xxx (xxx (strong inhibition)),- (– (no inhibition)),no inhibition,"Experimental BChE Ki [2, 8]: No Inhibition; Experimental BChE Ki ([2]; purified human serum BChE, BTChI substrate, pH 7.0, triplicate, listed as 2): did not inhibit"
"O=c1c(O)c(-c2ccc(O)c(O)c2)oc2cc(O)cc(O)c12 [Quercetin (4), quercetin]",62.2,(Mixed Non-competitive),–,–,(Mixed Non-competitive),–,–,–,–,–,–,Ki (BChE; ref Katalinić et al. [60]): 68 µM; Ki (BChE; ref Orhan et al. [87]): 46.8 µM
COc1ccc2c3c1O[C@H]1C[C@@H](O)C=C[C@@]31CCN(C)C2 [galantamine],–,–,–,–,–,–,–,–,–,–,–,Inhibition of ChE staining associated with normal neural elements [6]: inhibits; Inhibition of ChE staining associated with plaques [7]: inhibits
